Measurements: ChEMBL document CHEMBL1201862, “PubChem BioAssay data set” (2004)
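All cell lines were grown in 96-well plates and treated with compound for 48 hours. Here, GI50 denotes the concentration required for 50% inhibition of growth.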 Activity calls are given as the source filed them. Rule as the data show it: active = GI50 up to about 1.1 µM and inactive = higher.

Key:
Assay in all cases: growth of human tumour cells (NCI), 48 h
ACHN = tested on: ACHN
COLO 205 = tested on: COLO 205
EKVX = tested on: EKVX
HL-60 = tested on: HL-60
HOP-62 = tested on: HOP-62
HOP-92 = tested on: HOP-92
HT-29 = tested on: HT-29
Hs-578T = tested on: Hs-578T
IGROV-1 = tested on: IGROV-1
K562 = tested on: K562
LOX IMVI = tested on: LOX IMVI
MDA-N = tested on: MDA-N
NCI-H23 = tested on: NCI-H23
NCI-H460 = tested on: NCI-H460
NCI/ADR-RES = tested on: NCI/ADR-RES
OVCAR-4 = tested on: OVCAR-4
PC-3 = tested on: PC-3
SF-295 = tested on: SF-295
SK-MEL-2 = tested on: SK-MEL-2
SNB-75 = tested on: SNB-75

Measured: GI50

N=C(N)NS(=O)(=O)c1ccc(Nc2c3ccccc3nc3ccc(C(=O)Nc4ccc(S(N)(=O)=O)cc4)cc23)cc1
inactive: ACHN > 100 µM | COLO 205 > 100 µM | EKVX > 100 µM | HL-60 > 100 µM | HOP-62 > 100 µM | HOP-92 > 100 µM | HT-29 > 100 µM | Hs-578T > 100 µM | IGROV-1 > 100 µM | K562 > 100 µM | LOX IMVI > 100 µM | MDA-N > 100 µM | NCI-H23 > 100 µM | NCI-H460 > 100 µM | NCI/ADR-RES > 100 µM | OVCAR-4 > 100 µM | PC-3 > 100 µM | SF-295 > 100 µM | SK-MEL-2 > 100 µM | SNB-75 > 100 µM

CSCCC(NC(=O)OC(C)(C)C)C(=O)NCCNc1ccc(NCCNC(=O)C(CCSC)NC(=O)OC(C)(C)C)c2c1C(=O)c1ccccc1C2=O (configuration not stated)
inactive: ACHN 7.13 µM | COLO 205 2.22 µM | EKVX 8.11 µM | HL-60 3.01 µM | HOP-62 3.15 µM | HOP-92 3.93 µM | HT-29 2.64 µM | Hs-578T 2.39 µM | IGROV-1 3.14 µM | K562 2.75 µM | LOX IMVI 7.74 µM | MDA-N 2.74 µM | NCI-H23 4.51 µM | NCI-H460 5.85 µM | NCI/ADR-RES > 74.1 µM | OVCAR-4 6.7 µM | PC-3 5.31 µM | SF-295 7.57 µM | SK-MEL-2 14.2 µM | SNB-75 2.37 µM

COc1ccccc1C1Nn2c(nc3ccccc3c2=O)N1c1ccc(C)cc1 (configuration not stated)
inactive: ACHN 4 µM | COLO 205 6.65 µM | EKVX 11.4 µM | HL-60 10.6 µM | HOP-62 6.32 µM | HOP-92 10.4 µM | HT-29 7.78 µM | Hs-578T 10 µM | IGROV-1 6.34 µM | K562 7.83 µM | LOX IMVI 7.62 µM | MDA-N 5.83 µM | NCI-H23 10.9 µM | NCI-H460 3.37 µM | NCI/ADR-RES 9.06 µM | OVCAR-4 3.08 µM | PC-3 2.71 µM | SF-295 4.94 µM | SK-MEL-2 11.4 µM | SNB-75 14.9 µM

O=C(N/N=C1\C(=O)Nc2c(Cl)cc(Cl)cc21)C(=O)Nc1cccc(C(F)(F)F)c1
inactive: ACHN > 100 µM | COLO 205 > 100 µM | EKVX > 100 µM | HL-60 62.8 µM | HOP-62 > 100 µM | HOP-92 > 100 µM | HT-29 > 100 µM | Hs-578T > 100 µM | IGROV-1 > 100 µM | LOX IMVI > 100 µM | MDA-N 54 µM | NCI-H23 > 100 µM | NCI-H460 > 100 µM | NCI/ADR-RES > 100 µM | OVCAR-4 > 100 µM | PC-3 > 100 µM | SF-295 > 100 µM | SK-MEL-2 > 100 µM | SNB-75 > 100 µM

CC(C)(C)OC(=O)NC1CC=CCC1NC(=O)OC(C)(C)C (configuration not stated)
inactive: ACHN > 100 µM | COLO 205 > 100 µM | HL-60 > 100 µM | HOP-62 > 100 µM | HOP-92 > 100 µM | HT-29 > 100 µM | Hs-578T > 100 µM | IGROV-1 > 100 µM | K562 97.9 µM | LOX IMVI > 100 µM | MDA-N > 100 µM | NCI-H23 > 100 µM | NCI-H460 > 100 µM | NCI/ADR-RES > 100 µM | OVCAR-4 > 100 µM | PC-3 > 100 µM | SF-295 > 100 µM | SK-MEL-2 > 100 µM | SNB-75 > 100 µM

O/N=C1\CCc2cc3c(cc21)CCC3
inactive: ACHN > 100 µM | COLO 205 > 100 µM | EKVX 5.65 µM | HL-60 67.5 µM | HOP-62 > 100 µM | HOP-92 55.7 µM | HT-29 > 100 µM | Hs-578T 34.9 µM | IGROV-1 > 100 µM | K562 > 100 µM | LOX IMVI > 100 µM | MDA-N > 100 µM | NCI-H23 > 100 µM | NCI-H460 > 100 µM | NCI/ADR-RES > 100 µM | OVCAR-4 > 100 µM | PC-3 > 100 µM | SF-295 > 100 µM | SK-MEL-2 > 100 µM | SNB-75 44.3 µM

CC(C)(C)c1cc(C(O)(C(=O)O)C(=O)O)cc(C(C)(C)C)c1O
inactive: ACHN > 100 µM | COLO 205 > 100 µM | EKVX > 100 µM | HL-60 > 100 µM | HOP-62 > 100 µM | HOP-92 > 100 µM | HT-29 > 100 µM | Hs-578T > 100 µM | IGROV-1 > 100 µM | K562 > 100 µM | LOX IMVI > 100 µM | MDA-N > 100 µM | NCI-H23 > 100 µM | NCI/ADR-RES > 100 µM | OVCAR-4 > 100 µM | PC-3 > 100 µM | SF-295 > 100 µM | SK-MEL-2 > 100 µM | SNB-75 > 100 µM
